# According to paper PMC9127750, “Structure-based design of CDC42 effector interaction inhibitors for the treatment of cancer” (Cell reports, 2022):
# Several values for one entry are separate records, joined by “and”; a condition that tells them apart may be missing. Equal entries are not always repeated.
# Tested on: WM3248 melanoma cells, 486 antibodies
# Experiment: Reverse phase protein arrays (RPPA)
# Type: cell-based, Human
# Source text: Pellets were snap frozen in liquid nitrogen and shipped to MD Anderson Cancer Center core RPPA facility for RPPA analysis (Table S5). Three biological replicates for each sample were generated.
# Nomenclatures on the RPPA heatmaps: name_of_antibody.species_of_antibody.status_of_antibody. V - antibody validated; C - validation of antibody in progress; Q - antibody nonspecific; E – under evaluation; antibodies raised in M - mouse, G - goat, R - rabbit, or T - rat.
smiles,measurement,setting,value
"CN(C)c1cccc(Nc2cc(-c3ccccc3)nc(C3CCNCC3)n2)c1 [ARN22089, N1,N1-dimethyl-N3-(6-phenyl-2-(piperidin-4-yl)pyrimidin-4-yl)benzene-1,3-diamine]",Caspase.8.cleaved.R.C normalized signal,Norm_5 Average,0.982
same,Caveolin.1.R.V normalized signal,Norm_5 Average,0.855
same,Cdc6.R.V normalized signal,Norm_5 Average,0.979
same,Cdc42.R.C normalized signal,Norm_5 Average,1.009
same,Chk1.M.C normalized signal,Norm_5 Average,0.909
same,Chk2.M.V normalized signal,Norm_5 Average,0.853
same,Chk2_pT68.R.C normalized signal,Norm_5 Average,1.060
same,Claudin.7.R.V normalized signal,Norm_5 Average,0.926
same,Collagen.VI.R.V normalized signal,Norm_5 Average,1.116
same,Complex.II.Subunit.M.V normalized signal,Norm_5 Average,0.975
same,Cox2.R.C normalized signal,Norm_5 Average,1.135
same,Cox.IV.R.V normalized signal,Norm_5 Average,1.022
same,CtIP.R.V normalized signal,Norm_5 Average,0.975
same,Cyclin.B1.R.V normalized signal,Norm_5 Average,0.972
same,Cyclin.D3.M.V normalized signal,Norm_5 Average,0.904
same,Cyclin.E1.R.V normalized signal,Norm_5 Average,0.936
same,DAPK1_pS308.M.C normalized signal,Norm_5 Average,1.256
same,DDB.1.R.V normalized signal,Norm_5 Average,1.059
same,DDR1_pY513.R.C normalized signal,Norm_5 Average,0.981
same,DM.K9.Histone.H3.M.V normalized signal,Norm_5 Average,0.933
same,DNA.Ligase.IV.R.C normalized signal,Norm_5 Average,1.034
same,DNA_POLG.R.V normalized signal,Norm_5 Average,0.987
same,c.Jun_pS73.R.V normalized signal,Norm_5 Average,0.785
same,c.Met_pY1234_Y1235.R.V normalized signal,Norm_5 Average,1.005
same,c.Myc.R.C normalized signal,Norm_5 Average,1.002
same,cdc2_pY15.R.C normalized signal,Norm_5 Average,1.020
same,cdc25C.R.V normalized signal,Norm_5 Average,0.901
same,C.Raf.R.C normalized signal,Norm_5 replicates,0.928 and 0.922 and 1.015
same,C.Raf_pS338.R.V normalized signal,Norm_5 replicates,1.100 and 1.059 and 1.133
same,CA9.R.C normalized signal,Norm_5 replicates,0.890 and 0.944 and 0.999
same,CD2.M.C normalized signal,Norm_5 replicates,0.910 and 0.933 and 1.035
same,CD4.R.V normalized signal,Norm_5 replicates,1.047 and 1.004 and 1.101
same,CD5.M.C normalized signal,Norm_5 replicates,0.985 and 1.051
same,CD20.R.C normalized signal,Norm_5 replicates,0.992 and 1.004 and 0.765
same,CD26.R.V normalized signal,Norm_5 replicates,0.918 and 1.107 and 0.927
same,CD29.M.V normalized signal,Norm_5 replicates,0.891 and 0.950 and 1.049
same,CD31.M.V normalized signal,Norm_5 replicates,0.904 and 0.900 and 1.048
same,CD38.R.C normalized signal,Norm_5 replicates,0.928
same,CD44.R.C normalized signal,Norm_5 replicates,0.917 and 1.058 and 0.855
same,CD45.M.V normalized signal,Norm_5 replicates,0.930 and 1.021
same,CD49b.M.V normalized signal,Norm_5 replicates,0.968 (2×) and 1.000
same,CD68.M.C normalized signal,Norm_5 replicates,0.960 and 0.996 and 0.977
same,CD74.M.V normalized signal,Norm_5 replicates,0.856 and 0.898 and 1.027
same,CD134.R.V normalized signal,Norm_5 replicates,0.925 and 0.944
same,CD171.M.V normalized signal,Norm_5 replicates,0.619 and 0.917 and 0.812
same,CDK1_pT14.R.C normalized signal,Norm_5 replicates,0.861 and 1.206
same,CDK9.R.V normalized signal,Norm_5 replicates,0.898 and 0.959 and 1.009
same,CDKN2A.R.C normalized signal,Norm_5 replicates,0.913 and 0.846 and 1.064
same,CDT1.R.V normalized signal,Norm_5 replicates,0.876 and 0.937
same,CENP.A.R.V normalized signal,Norm_5 replicates,0.837 and 1.027
same,CHD1L.R.V normalized signal,Norm_5 replicates,0.984 and 0.980 and 1.062
same,CIITA.R.C normalized signal,Norm_5 replicates,0.906 and 1.032 and 0.908
same,COG3.R.V normalized signal,Norm_5 replicates,1.065 and 1.046 and 1.027
same,CRABP1.R.C normalized signal,Norm_5 replicates,0.859 and 0.948
same,CRABP2.R.V normalized signal,Norm_5 replicates,0.835 and 0.922
same,CREB_pS133.R.C normalized signal,Norm_5 replicates,0.973 and 1.049
same,CSK.R.C normalized signal,Norm_5 replicates,0.899 and 0.615
same,Calnexin.R.V normalized signal,Norm_5 replicates,0.886 and 0.995 and 1.007
same,Caspase.3.cleaved.R.C normalized signal,Norm_5 replicates,1.021 and 1.056
same,Caspase.7.cleaved..R.C normalized signal,Norm_5 replicates,0.975 and 1.120
same,Caspase.8.M.Q normalized signal,Norm_5 replicates,0.995 and 1.011
same,Caspase.8.cleaved.R.C normalized signal,Norm_5 replicates,0.959 and 0.968 and 1.018
same,Caveolin.1.R.V normalized signal,Norm_5 replicates,0.695 and 1.083 and 0.788
same,Cdc6.R.V normalized signal,Norm_5 replicates,1.013 and 0.837
same,Cdc42.R.C normalized signal,Norm_5 replicates,0.983 and 0.959
same,Chk1.M.C normalized signal,Norm_5 replicates,0.847 and 0.901 and 0.979
same,Chk1_pS296.R.V normalized signal,Norm_5 replicates,1.011 and 0.821 and 1.014
same,Chk1_pS345.R.C normalized signal,Norm_5 replicates,1.085 and 0.937
same,Chk2.M.V normalized signal,Norm_5 replicates,0.877 and 0.935 and 0.746
same,Chk2_pT68.R.C normalized signal,Norm_5 replicates,1.018 and 1.050 and 1.112
same,Claudin.7.R.V normalized signal,Norm_5 replicates,0.960 and 0.997 and 0.822
same,Collagen.VI.R.V normalized signal,Norm_5 replicates,1.125 and 1.077 and 1.148
same,Complex.II.Subunit.M.V normalized signal,Norm_5 replicates,0.952 and 1.023
same,Connexin.43.R.C normalized signal,Norm_5 replicates,1.236 and 0.956
same,Coup.TFII.R.C normalized signal,Norm_5 replicates,1.082 and 1.017
same,Cox2.R.C normalized signal,Norm_5 replicates,1.108 and 1.155 and 1.142
same,Cox.IV.R.V normalized signal,Norm_5 replicates,1.004 and 1.021
same,Creb.R.C normalized signal,Norm_5 replicates,1.017
same,CtIP.R.V normalized signal,Norm_5 replicates,1.022 and 0.990 and 0.914
same,Cyclin.B1.R.V normalized signal,Norm_5 replicates,0.618 and 1.059 and 1.239
same,Cyclin.D1.R.C normalized signal,Norm_5 replicates,0.917 and 1.018
same,Cyclin.D3.M.V normalized signal,Norm_5 replicates,0.934 and 0.919 and 0.861
same,Cyclin.E1.R.V normalized signal,Norm_5 replicates,0.930 and 0.904 and 0.974
same,Cyclophilin.F.M.V normalized signal,Norm_5 replicates,0.842 and 0.856
same,D.a.Tubulin.R.V normalized signal,Norm_5 replicates,1.019 and 1.128
same,DAPK1_pS308.M.C normalized signal,Norm_5 replicates,1.353 and 1.627 and 0.788
same,DAPK2.R.C normalized signal,Norm_5 replicates,1.191 and 1.026
same,DDB.1.R.V normalized signal,Norm_5 replicates,1.062 and 0.816 and 1.300
same,DDR1.R.V normalized signal,Norm_5 replicates,0.866 and 0.933 and 1.046
same,DDR1_pY513.R.C normalized signal,Norm_5 replicates,0.890 and 1.005 and 1.047
same,DJ1.R.V normalized signal,Norm_5 replicates,1.019 and 1.054
same,DM.Histone.H3.R.V normalized signal,Norm_5 replicates,0.978 and 1.119 and 1.017
same,DM.K9.Histone.H3.M.V normalized signal,Norm_5 replicates,0.882 and 0.936 and 0.982
same,DNA.Ligase.IV.R.C normalized signal,Norm_5 replicates,1.083 and 0.953
same,DNA_POLG.R.V normalized signal,Norm_5 replicates,1.009 and 1.004
same,c.Jun_pS73.R.V normalized signal,Norm_5 replicates,0.798 and 0.640 and 0.915
same,c.Kit.R.V normalized signal,Norm_5 replicates,1.128 and 0.954
same,c.Met_pY1234_Y1235.R.V normalized signal,Norm_5 replicates,0.983 and 1.008 and 1.024
same,c.Myc.R.C normalized signal,Norm_5 replicates,0.935 and 1.002
same,cGAS.R.V normalized signal,Norm_5 replicates,0.859 and 0.966 and 1.027
same,cdc2_pY15.R.C normalized signal,Norm_5 replicates,1.026 and 1.124
same,cdc25C.R.V normalized signal,Norm_5 replicates,0.919 and 0.928 and 0.857
same,MYH11.R.C Average,"Norm_10, normalized to Norm_0",1.438
same,Myosin.IIa.R.C Average,"Norm_10, normalized to Norm_0",1.143
same,Myosin.IIa_pS1943.R.V Average,"Norm_10, normalized to Norm_0",1.250
same,Myt1.R.C Average,"Norm_10, normalized to Norm_0",0.974
same,N.Cadherin.R.V Average,"Norm_10, normalized to Norm_0",1.013
same,N.Ras.M.V Average,"Norm_10, normalized to Norm_0",0.937
same,NAPSIN.A.R.C Average,"Norm_10, normalized to Norm_0",1.005
same,NDRG1_pT346.R.V Average,"Norm_10, normalized to Norm_0",1.345
same,NDUFB4.R.V Average,"Norm_10, normalized to Norm_0",1.030
same,NRF2.R.C Average,"Norm_10, normalized to Norm_0",0.980
same,Notch1.R.V Average,"Norm_10, normalized to Norm_0",0.957
same,Notch1.cleaved.R.V Average,"Norm_10, normalized to Norm_0",0.977
same,Notch3.R.C Average,"Norm_10, normalized to Norm_0",1.054
same,Oct.4.R.C Average,"Norm_10, normalized to Norm_0",1.008
same,P.Cadherin.R.C Average,"Norm_10, normalized to Norm_0",1.101
same,PAI.1.M.V Average,"Norm_10, normalized to Norm_0",0.931
same,PAICS.R.C Average,"Norm_10, normalized to Norm_0",0.957
same,PAK1.R.V Average,"Norm_10, normalized to Norm_0",0.905
same,PAK4.R.V Average,"Norm_10, normalized to Norm_0",1.019
same,PAK_pS474_S602_S560.R.V Average,"Norm_10, normalized to Norm_0",1.098
same,PAK_pT423_T402.R.C Average,"Norm_10, normalized to Norm_0",1.015
same,PAR.R.C Average,"Norm_10, normalized to Norm_0",1.104
same,PARG.R.C Average,"Norm_10, normalized to Norm_0",1.019
same,PARP.R.V Average,"Norm_10, normalized to Norm_0",1.149
same,PAX6.R.V Average,"Norm_10, normalized to Norm_0",0.956
same,PAX8.R.C Average,"Norm_10, normalized to Norm_0",1.011
same,PCNA.M.C Average,"Norm_10, normalized to Norm_0",0.988
same,PD.1.R.V Average,"Norm_10, normalized to Norm_0",0.998
same,PD.L1.R.C Average,"Norm_10, normalized to Norm_0",0.960
same,PDH.M.V Average,"Norm_10, normalized to Norm_0",0.958
same,PDK1.R.V Average,"Norm_10, normalized to Norm_0",1.058
same,PDK1_pS241.R.V Average,"Norm_10, normalized to Norm_0",0.934
same,PEA.15.R.V Average,"Norm_10, normalized to Norm_0",1.020
same,PEA.15_pS116.R.V Average,"Norm_10, normalized to Norm_0",0.996
same,PERK.R.V Average,"Norm_10, normalized to Norm_0",1.061
same,PHGDH.R.C Average,"Norm_10, normalized to Norm_0",0.964
same,PHLPP.R.V Average,"Norm_10, normalized to Norm_0",1.190
same,PI3K.p85.R.C Average,"Norm_10, normalized to Norm_0",1.002
same,PI3K.p110.a.R.C Average,"Norm_10, normalized to Norm_0",0.864
same,PI3K.p110.b.M.C Average,"Norm_10, normalized to Norm_0",0.990
same,PKA.a.R.V Average,"Norm_10, normalized to Norm_0",0.941
same,PKC.a.b.II_pT638_T641.R.V Average,"Norm_10, normalized to Norm_0",0.894
same,PKC.b.II_pS660.R.V Average,"Norm_10, normalized to Norm_0",0.986
same,PKCa.R.V Average,"Norm_10, normalized to Norm_0",1.017
same,PKM2.R.C Average,"Norm_10, normalized to Norm_0",1.046
same,PLC.gamma1.R.V Average,"Norm_10, normalized to Norm_0",1.192
same,PLC.gamma1_pS1248.R.V Average,"Norm_10, normalized to Norm_0",1.153
same,PLC.gamma2_pY759.R.V Average,"Norm_10, normalized to Norm_0",1.003
same,PLK1.R.C Average,"Norm_10, normalized to Norm_0",0.886
same,PMS2.R.V Average,"Norm_10, normalized to Norm_0",1.014
same,PR.R.V Average,"Norm_10, normalized to Norm_0",0.988
same,PRAS40.M.C Average,"Norm_10, normalized to Norm_0",1.046
same,PRAS40_pT246.R.V Average,"Norm_10, normalized to Norm_0",1.016
same,PRC1_pT481.R.C Average,"Norm_10, normalized to Norm_0",1.014
same,Patched.R.C Average,"Norm_10, normalized to Norm_0",0.952
same,Paxillin.R.C Average,"Norm_10, normalized to Norm_0",0.862
same,Pdcd4.R.C Average,"Norm_10, normalized to Norm_0",0.987
same,Porin.M.V Average,"Norm_10, normalized to Norm_0",1.053
same,p21.R.C Average,"Norm_10, normalized to Norm_0",0.934
same,p27_pT157.R.C Average,"Norm_10, normalized to Norm_0",1.162
same,p27_pT198.R.V Average,"Norm_10, normalized to Norm_0",1.113
